# “Also recorded” adds a separate entry of the source.
# Experiments:
# [1] = cited from earlier work; for Stability of the polymorph: ambient conditions / air
# [2] = Polymorph obtained on crystallization of 3-ABSA from water with or without AMMP substrate (XRPD)
# [3] = Polymorph obtained on crystallization of AAP from ethanol with or without crystalline substrate (DSC, XRPD); format: physicochemical; conditions: supersaturation 0.49 with respect to Form I; for Polymorphic form of AAP crystallized in the presence of substrate: substrate seeds added, DSC/XRPD, label = substrate
# Excerpt: Such an observation implies that for both polymorphs their nucleation rate constants follow the relationship kI>kII. It was hypothesized crystalline substrates would be able to selectively crystallize Form II if they fit the following two core criteria: 1) the unit cell parameters of the substrate were substantially similar to that of Form II and 2) the molecular functionality of the compound acting as the substrate is similar to that of AAP. By constraining the crystallographic properties of the substrate in this way, a three dimensional lattice match with Form II was targeted. Furthermore, selection of compounds with similar functionality as AAP was selected to stabilize the formation of a nucleus through favorable interactions such as hydrogen bonds.
# The crystallizations of AAP from ethanol were then repeated in the presence of 50 mg of 4-APAA seeds, added after the desired supersaturation had been achieved. Once crystallization occurred, the crystals were filtered immediately and analyzed by DSC and x-ray powder diffraction. […] Furthermore no melting endotherm for Form I which is often observed in DSC traces of apparently pure Form II.
# A plot of dimensionless potential energy (V/V0) as a function of orientation angle (θ) for the interacting (001) faces of Form II acetaminophen and graphite was prepared. The EpiCalc calculation was performed using the following lattice values for the (001) faces of Form II acetaminophen and graphite: (001) Form II acetaminophen: a=17.1657 Å, b=11.7773 and Å and β=90° (001); graphite: a=b=2.456 Å and α=90°. The acetaminophen overlayer dimensions were 25×25 cells and the orientation angle range tested was 180° with a step size of 0.25°.
# [4] = Nucleation induction time of AAP from ethanol in the presence of crystalline substrates; format: physicochemical; conditions: AAP Form I from ethanol; for Average induction times, τ: σ = 0.36, 15° C.; for Change in τ compared to bulk nucleation: σ = 0.36
# Experimental: 1.5 mL aliquots of the stock solution were then syringe filtered into HPLC vials through a 0.2 μm nylon membrane in order to remove solid impurities. Crystallisations were carried out using a RS10 Clarity Solubility Station with non-intrusive infrared transmission probes and Integrity Client Software. The vials were initially held for 30 mins at 40° C. to ensure complete dissolution of AAP had occurred. After which they were cooled to 15° C. at a rate of 5° C./min and held at this temperature over a 24 hour period whilst the turbidity of the solution was monitored. Over the course of the experiments the stirring speed in each vial was held constant at 700 rpm. For those crystallizations requiring substrate, 3 mg was used. […] For each system studied 50 crystallisations were carried out to ensure a sufficient number of data points were obtained for statistical analysis.
# The effectiveness of the five chosen substrates at promoting nucleation of AAP was measured by determining their effect on the nucleation induction time, τ. […] X-ray powder diffraction was used to confirm that it was the nucleation induction time of Form I being measured in all cases with any additional peaks in the diffraction patterns correspond to the substrates.
# The percentage of vials crystallized as a function of time were plotted to give cumulative probability distributions of nucleation induction time for each system tested. […] It was assumed that nucleation follows a Poisson distribution (Equation 1). λ is the expected number of occurrences in the interval and k is the exact number of occurrences. If k=0 and […], then the probability of observing no nucleation events within a time, t, is given by equation 2 which is consistent with first order kinetic expressions previously used for studying nucleation events.
# Using linear regression, plotting ln(P) against t (FIG. 10), the average induction times and associated errors were calculated (Table 3).
# [5] = 3 mg substrate, 700 rpm, 50 crystallisations, label = substrate
smiles,measurement,setting,value
"Nc1cccc(S(=O)(=O)O)c1 [3-ABSA Form II, 3-aminobenzenesulfonic acid]",Stability of the polymorph,[1],thermodynamically most stable form under ambient conditions
"Nc1cccc(S(=O)(=O)O)c1 [3-ABSA, 3-aminobenzenesulfonic acid]",Polymorphic form of 3-ABSA crystallized without substrate,"[2]; aqueous solution, no substrate",only Form II was obtained; also recorded: Form II had crystallized
"Nc1ccc(CC(=O)O)cc1 [4-APAA, 4-aminophenylacetic acid]",Polymorphic form of AAP crystallized in the presence of substrate,[3],Form II crystallized
"CC(=O)Nc1ccc(O)cc1 [AAP Form I, acetaminophen, reference compound]","Average induction times, τ","[4]; bulk nucleation, no substrate",1930 ± 85 min
same,Stability of the polymorph,[1],thermodynamically stable phase under ambient conditions
"CC(=O)Nc1ccc(O)cc1 [AAP Form II, acetaminophen]",Time until Form I crystallizes via solvent mediated phase transformation when seeding with Form II,"[1]; in solution, seeded with Form II",≤ 15 min
same,Temperature of solid state transformation to Form I,[1]; solid state,Above 60 °C
"CC(=O)Nc1ccc(O)cc1 [AAP Form III, acetaminophen]",Stability of the polymorph,[1],highly unstable in air
"CC(=O)Nc1ccc(O)cc1 [AAP, acetaminophen, reference compound]",Polymorphic form of AAP crystallized without substrate,[3],only Form I was obtained
COc1cc(C)nc(N)n1 [AMMP],Polymorphic form of 3-ABSA crystallized in the presence of substrate,"[2]; aqueous solution saturated at 50° C., cooled to 10° C., 50 mg AMMP seeds, label = substrate",Form I crystallized; also recorded: a mixture of Forms I and II was obtained
OC[C@@H](O)[C@@H](O)[C@H](O)[C@H](O)CO [D-mannitol],"Average induction times, τ",[4]; [5],390 ± 8 min
same,Change in τ compared to bulk nucleation,[4]; label = substrate,largest reduction in τ
same,Polymorphic form of AAP crystallized in the presence of substrate,[3],Form I
N[C@@H](Cc1c[nH]cn1)C(=O)O [L-histidine],"Average induction times, τ",[4]; [5],1910 ± 95 min
same,Change in τ compared to bulk nucleation,[4]; label = substrate,no measureable decrease in τ
"[Cl-].[Na+] [Sodium Chloride, sodium chloride]",Polymorphic form of AAP crystallized in the presence of substrate,[3],Form I
"O.OC[C@H]1O[C@@H](O[C@H]2[C@H](O)[C@@H](O)[C@@H](O)O[C@@H]2CO)[C@H](O)[C@@H](O)[C@H]1O [α-LMH, α-lactose monohydrate]","Average induction times, τ",[4]; [5],410 ± 11 min
same,Change in τ compared to bulk nucleation,[4]; label = substrate,largest reduction in τ
same,Polymorphic form of AAP crystallized in the presence of substrate,[3],Form I

# Reference: patent US9822467B2, “Methods and systems relating to the selection of substrates comprising crystalline templates for the controlled crystallization of molecular species” (Massachusetts Institute of Technology, priority 2011, dated 2017)
